Assay results: EPA's ToxValDB 9.5 (doi:10.2903/j.efsa.2019.5821)
Converted amounts (≈) assume the structure as drawn.

What was measured:
Typhlodromus pyri = experiment: LR50; higher = less toxic; conditions: not reported; mortality
Mus musculus = conditions: chronic; duration: 18 months; body weight
Oncorhynchus mykiss = conditions: acute; duration: 96 hours; mortality
Tagia sp. = conditions: chronic/long-term; duration: 56 days; reproduction
Folsomia candida = conditions: chronic/long-term; duration: 28 days; mortality
Daphnia magna = conditions: chronic/long-term; duration: 21 days; reproduction
Apis mellifera = conditions: acute, mortality
Rattus norvegicus = conditions: for NOAEL: body weight
Oryctolagus sp. = conditions: developmental; development

Row | Compound | LR50 (Typhlodromus pyri) [g/ha] | NOAEL (Mus musculus) [mg/kg-day] | LC50 (Colinus virginianus; acute, oral, diet, mortality) [mg/kg-day] | LD50 (Colinus virginianus; acute, oral, mortality) [mg/kg-day] | NOEC (Colinus virginianus; reproduction developmental) [mg/kg-day] | LC50 (Oncorhynchus mykiss) [µg/mL] | NOEC (Tagia sp.) [mg/kg] | NOEC (Folsomia candida) [mg/kg] | NOEC (Daphnia magna) [mg/L] | LD50 (Apis mellifera; dermal) [µg/piece] | LD50 (Apis mellifera; oral, unspecified) [µg/piece] | LD50 (Rattus norvegicus; acute, oral, mortality) [mg/kg-day] | NOAEL (Rattus norvegicus; reproduction developmental) [mg/kg-day] | NOAEL (Oryctolagus sp.) [mg/kg-day] | NOAEL (Rattus norvegicus; short-term, duration: 28 days) [mg/kg-day]
1 | CON(C(=O)c1cn(C)nc1C(F)F)C(C)Cc1c(Cl)cc(Cl)cc1Cl (configuration not stated) [Pydiflumetofen] | > 408 | 9.2 | > 1260 | 3780 | 90.1 | 0.18 (≈ 0.422 µM) | 15.9 | 186 | 0.042 | > 100 | > 116 | > 5000 | 30 | 10 | –
2 | Cn1cc(C(=O)O)c(C(F)F)n1 [3-(Difluoromethyl)-1-methyl-1H-pyrazole-4-carboxylic acid] | – | – | – | – | – | > 100 | – | – | – | – | – | – | – | 250 | –
3 | Cn1cc(C(N)=O)c(C(F)F)n1 [3-(Difluoromethyl)-1-methyl-1H-pyrazole-4-carboxamide] | – | – | – | – | – | – | – | – | – | – | – | – | – | – | 37.4
